Measured values taken from EPA's ToxRefDB 2.

Legend:
rat [1] = settings: Prenatal developmental toxicity study, sprague dawley, Oral, Gavage/Intubation, dose end: 15 GD
rat [2] = settings: Combined chronic toxicity/carcinogenicity, sprague dawley, Oral, Feed, dose end: 24 month, group: systemic
dog [3] = settings: Subchronic oral toxicity in nonrodent, beagle, Feed, dose end: 13 week, group: systemic
mouse [4] = settings: Carcinogenicity, cd1, Oral, Feed, dose end: 18 month, group: systemic
rat [5] = settings: Multigenerational reproductive toxicity study, sprague dawley, Oral, Feed, dose end: 2 generation
mouse [6] = settings: Carcinogenicity, cd1, Oral, Feed, dose end: 18 month, group: systemic; remark: listed apart in the source
rat [7] = settings: Subchronic oral toxicity in rodents, sprague dawley, Feed, dose end: 90 day, group: systemic
dog [8] = settings: Chronic toxicity, beagle, Oral, Feed, dose end: 52 week, group: systemic
mouse [9] = settings: Subchronic oral toxicity in rodents, cd1, Feed, dose end: 13 week, group: systemic
mouse [10] = settings: Subchronic oral toxicity in rodents, cd1, Feed, dose end: 90 day, group: systemic
rat [11] = settings: Subchronic oral toxicity in rodents, other, Feed, dose end: 90 day, group: systemic
rat [12] = settings: Subchronic oral toxicity in rodents, wistar, Feed, dose end: 90 day, group: systemic, systemic / in life observation / body weight / body weight + systemic / in life observation / food consumption / food consumption + systemic…
mouse [13] = settings: Prenatal developmental toxicity study, cd1, Oral, Gavage/Intubation, dose end: 14 GD
dog [14] = settings: Subchronic oral toxicity in nonrodent, beagle, Feed, dose end: 13 week, group: systemic; remark: listed apart in the source
mouse [15] = settings: Multigenerational reproductive toxicity study, other, Oral, Feed, dose end: 1 generation
rat [16] = settings: Carcinogenicity; fischer; Oral; Water; dose end: 104 week; group: systemic; systemic / in life observation / water consumption / water consumption
dog [17] = settings: Chronic toxicity; beagle; Oral; Capsule; dose end: 12 month; group: cholinesterase; cholinesterase / cholinesterase / cholinesterase / plasma cholinesterase (che)
[18] = group: developmental, developmental / developmental malformation / kidney / dilated renal pelvis + developmental / developmental malformation / ureter / dilated
[19] = group: maternal, systemic / in life observation / body weight / body weight gain + systemic / in life observation / food consumption / food consumption
[20] = systemic / in life observation / body weight / body weight + systemic / in life observation / body weight / body weight gain + systemic / …
[21] = systemic / in life observation / clinical signs / defecation (diarrhea)
[22] = systemic / in life observation / clinical signs / defecation (diarrhea) + systemic / clinical chemistry / alpha-1 globulin / alpha-1 …
[23] = systemic / in life observation / body weight / body weight gain
[24] = group: offspring, systemic / in life observation / body weight / offspring (pup) weight + systemic / in life observation / body weight / offspring (pup) …
[25] = group: parental, systemic / in life observation / clinical signs / anogenital staining
[26] = group: parental, systemic / in life observation / clinical signs / anogenital staining + systemic / in life observation / body weight / body weight + …
[27] = systemic / in life observation / body weight / body weight gain + systemic / clinical chemistry / alkaline phosphatase (alp/alk) / alkaline …
[28] = systemic / clinical chemistry / 5' nucleotidase / 5' nucleotidase + systemic / clinical chemistry / alkaline phosphatase (alp/alk) / …
[29] = systemic / in life observation / body weight / body weight gain + systemic / organ weight / heart / relative to body weight + systemic / …
[30] = systemic / in life observation / food consumption / food consumption
[31] = systemic / in life observation / food consumption / food consumption + systemic / in life observation / body weight / body weight + systemic…
[32] = group: developmental, systemic / in life observation / body weight / offspring (pup) weight
[33] = group: maternal, systemic / in life observation / mortality / mortality
[34] = systemic / in life observation / body weight / body weight + systemic / in life observation / food consumption / food consumption + systemic…
[35] = group: offspring, systemic / in life observation / body weight / litter weight + systemic / in life observation / body weight / offspring (pup) weight + …
[36] = group: reproductive, reproductive / reproductive performance / mating / mating + reproductive / reproductive performance / estrous cycle / length + reproductive…

In the case of `N#Cc1c[nH]cc1-c1cccc2c1OC(F)(F)O2` [Fludioxonil], the LOAEL (rat [1]; [18]) is reported as 1000 mg/kg/day, the NEL (rat [1]; [18]) is reported as 10 mg/kg/day and the NOAEL (rat [1]; [18]) is reported as 100 mg/kg/day. The LEL (rat [1]; group: developmental, developmental / developmental malformation / ureter / dilated) was 100 mg/kg/day, the LOAEL (rat [1]; group: maternal, systemic / in life observation / body weight / body weight gain) was 1000 mg/kg/day and the LEL (rat [1]; [19]) was 1000 mg/kg/day. For the same molecule, the NEL (rat [1]; [19]) was 100 mg/kg/day, the NOAEL (rat [1]; [19]) was 100 mg/kg/day and the LOAEL (rat [2]; [20]) was 113 mg/kg/day. For the same molecule, the NEL (rat [2]; [20]) was 3.7 mg/kg/day, the NOAEL (rat [2]; [20]) was 37 mg/kg/day and the LEL (rat [2]; systemic / in life observation / clinical signs / body surface staining + systemic / in life observation / clinical signs / feces, …) was 37 mg/kg/day. The LEL (dog [3]; [21]) was 50 mg/kg/day, the LOAEL (dog [3]; [21]) was 50 mg/kg/day and the NEL (dog [3]; [22]) was 5 mg/kg/day. For the same molecule, the NOAEL (dog [3]; [22]) was 5 mg/kg/day, the LEL (mouse [4]; [23]) was 1.1 mg/kg/day and the NEL (mouse [4]; [23]) was less than 1.1 mg/kg/day. It also gave an NOAEL (mouse [4]; systemic / in life observation / body weight / body weight gain + systemic / in life observation / clinical signs / convulsions + systemic…) of 11.3 mg/kg/day, an LOAEL (mouse [4]; systemic / in life observation / clinical signs / convulsions + systemic / in life observation / clinical signs / urine, discoloration + …) of 112 mg/kg/day and an LOAEL (rat [5]; group: offspring, systemic / in life observation / body weight / offspring (pup) weight) of 222 mg/kg/day. For the same molecule, the LEL (rat [5]; [24]) was 222 mg/kg/day, the NEL (rat [5]; [24]) was 22.1 mg/kg/day and the NOAEL (rat [5]; [24]) was 22.1 mg/kg/day. The NEL (rat [5]; [25]) was 22.1 mg/kg/day, the NOAEL (rat [5]; [25]) was 22.1 mg/kg/day and the LEL (rat [5]; [26]) was 222 mg/kg/day. For the same molecule, the LOAEL (rat [5]; [26]) was 222 mg/kg/day, the NEL (mouse [6]; systemic / organ weight / heart / absolute + systemic / organ weight / kidney / absolute + systemic / organ weight / liver / relative to …) was 3.3 mg/kg/day and the LOAEL (mouse [6]; systemic / pathology microscopic / kidney / nephropathy) was 590 mg/kg/day. For the same molecule, the NOAEL (mouse [6]; systemic / pathology microscopic / kidney / nephropathy + systemic / hematology / hematocrit (hct) / hematocrit (hct) + systemic / …) was 3.3 mg/kg/day, the LEL (mouse [6]; systemic / pathology microscopic / kidney / nephropathy + systemic / hematology / hemoglobin (hgb) / hemoglobin (hgb) + systemic / …) was 590 mg/kg/day and the LOAEL (rat [7]; systemic / in life observation / body weight / body weight gain + systemic / pathology microscopic / kidney / nephropathy) was 428 mg/kg/day. For the same molecule, the NOAEL (rat [7]; systemic / in life observation / body weight / body weight gain + systemic / pathology microscopic / kidney / nephropathy + systemic / …) was 64 mg/kg/day, the LEL (rat [7]; systemic / organ weight / thymus / relative to body weight) was 70 mg/kg/day and the NEL (rat [7]; systemic / organ weight / thymus / relative to body weight + systemic / clinical chemistry / alkaline phosphatase (alp/alk) / alkaline …) was 7.1 mg/kg/day. It also gave an LEL (dog [8]; [23]) of 35.5 mg/kg/day, an LOAEL (dog [8]; [23]) of 35.5 mg/kg/day and an NEL (dog [8]; [27]) of 3.3 mg/kg/day. The NOAEL (dog [8]; [27]) was 3.3 mg/kg/day, the LOAEL (mouse [9]; [28]) was 1050 mg/kg/day and the NOAEL (mouse [9]; [28]) was 445 mg/kg/day. It also gave an LEL (mouse [9]; systemic / organ weight / liver / relative to body weight + systemic / pathology microscopic / liver / hypertrophy) of 559 mg/kg/day and an NEL (mouse [9]; systemic / organ weight / liver / relative to body weight + systemic / pathology microscopic / liver / hypertrophy + systemic / clinical …) of 178 mg/kg/day.

`CCOCCOCCO` [2-(2-Ethoxyethoxy)ethanol] showed an LOAEL (mouse [10]; [29]) greater than 8100 mg/kg/day, an NEL (mouse [10]; [29]) of 900 mg/kg/day and an NOAEL (mouse [10]; [29]) of no less than 8100 mg/kg/day. The LEL (mouse [10]; systemic / in life observation / body weight / body weight gain + systemic / organ weight / kidney / relative to body weight) was 2700 mg/kg/day, the LEL (rat [11]; [30]) was 250 mg/kg/day and the NEL (rat [11]; [30]) was less than 250 mg/kg/day. For the same molecule, the LOAEL (rat [11]; [31]) was greater than 2500 mg/kg/day, the NOAEL (rat [11]; [31]) was no less than 2500 mg/kg/day and the LEL (rat [12]) was 2500 mg/kg/day. For the same molecule, the LOAEL (rat [12]) was greater than 2500 mg/kg/day, the NEL (rat [12]) was 500 mg/kg/day and the NOAEL (rat [12]) was no less than 2500 mg/kg/day. For the same molecule, the LEL (mouse [13]; [32]) was 5500 mg/kg/day, the LOAEL (mouse [13]; [32]) was greater than 5500 mg/kg/day and the NEL (mouse [13]; [32]) was less than 5500 mg/kg/day. It also gave an NOAEL (mouse [13]; [32]) of no less than 5500 mg/kg/day, an LEL (mouse [13]; [33]) of 5500 mg/kg/day and an LOAEL (mouse [13]; [33]) greater than 5500 mg/kg/day. It also gave an NEL (mouse [13]; [33]) of less than 5500 mg/kg/day and an NOAEL (mouse [13]; [33]) of no less than 5500 mg/kg/day.

`Cn1sccc1=O` [2-Methyl-3(2H)-isothiazolone] gave an LOAEL (dog [14]; systemic / in life observation / body weight / body weight + systemic / in life observation / food consumption / food consumption) of 40.6 mg/kg/day, an LEL (dog [14]; [34]) of 40.6 mg/kg/day and an NEL (dog [14]; [34]) of 9.9 mg/kg/day. It also gave an NOAEL (dog [14]; [34]) of 9.9 mg/kg/day.

`O=C(OC[C@H]1O[C@@H](OC(=O)c2cc(O)c(O)c(OC(=O)c3cc(O)c(O)c(O)c3)c2)[C@H](OC(=O)c2cc(O)c(O)c(OC(=O)c3cc(O)c(O)c(O)c3)c2)[C@@H](OC(=O)c2cc(O)c(O)c(OC(=O)c3cc(O)c(O)c(O)c3)c2)[C@@H]1OC(=O)c1cc(O)c(O)c(OC(=O)c2cc(O)c(O)c(O)c2)c1)c1cc(O)c(O)c(OC(=O)c2cc(O)c(O)c(O)c2)c1` [Tannic acid] was tested, and the LEL (mouse [15]; [35]) was 12000 mg/kg/day, the LOAEL (mouse [15]; [35]) was greater than 12000 mg/kg/day and the NEL (mouse [15]; [35]) was less than 12000 mg/kg/day. It also gave an NOAEL (mouse [15]; [35]) of no less than 12000 mg/kg/day, an LEL (mouse [15]; [36]) of 12000 mg/kg/day and an LOAEL (mouse [15]; [36]) greater than 12000 mg/kg/day. For the same molecule, the NEL (mouse [15]; [36]) was less than 12000 mg/kg/day, the NOAEL (mouse [15]; [36]) was no less than 12000 mg/kg/day and the LEL (rat [16]) was 131 mg/kg/day. For the same molecule, the LOAEL (rat [16]) was greater than 243 mg/kg/day, the NEL (rat [16]) was less than 131 mg/kg/day and the NOAEL (rat [16]) was no less than 243 mg/kg/day.

`CCOP(=S)(OCC)SCSC(C)(C)C` [Terbufos] gave an LEL (dog [17]) of 0.015 mg/kg/day, an LOAEL (dog [17]) of 0.015 mg/kg/day and an NEL (dog [17]) of less than 0.015 mg/kg/day. It also gave an NOAEL (dog [17]) of less than 0.015 mg/kg/day.
